Experiments:
[1] = test system: HL60 MDR tumor; experiment: HL60 MDR tumor implanted in nude mice, tumor volume; type: in vivo
From the text: Tumor implantation. Mice were purchased from the Animal Production Program of National Cancer Institute, Frederick, Md. The animals used were Athymic Ncr-nu/nu (strain code 01B74). HL60 MDR cells were harvested and reconstituted at 1 million cells per 100 microliters of phosphate buffered saline. One million tumor cells per injection site were implanted subcutaneously on two sites of the animal's back. Treatments began at exactly seven days post tumor implantation. Tumor size/volume was monitored twice weekly using measurement calipers, with the formula Tumor Volume=π×(short diameter)^2×(long diameter)/6.
Mice experiments with fatty acid metabolism and glycolytic inhibitors. Fatty acid metabolism inhibitors were exemplified by etomoxir at 200 micrograms/day. Glycolytic inhibitors were exemplified by 2-deoxy-D-glucose at 2.5 mM in 100 microliters daily. The combination was administered daily, etomoxir at 200 micrograms and 2-deoxy-D-glucose at 2.5 mM in 100 microliters. All drugs were administered intra-peritoneally. 5-Fluoro-uracil, at 20 mg per kilogram mouse, was injected intra-peritoneally once a week
HL60 MDR human leukemia cells were cultured and implanted in nude mice as described above under “Materials and Methods”. The mice were given 200 ug of Etomoxir, 2.5 mM 2-Deoxy-D-glucose, or both 200 ug of Etomoxir and 2.5 mM 2-Deoxy-D-glucose given daily by IP injection. Treatment began exactly one week after tumor implantation.

[2] = test system: HL60 MDR cells; experiment: % death of HL60 MDR cells by flow cytometry; type: cell-based, human; details: HL60 MDR
Experimental: Dot plots as a function of live versus dead cells. The cells were cultured at a concentration of 0.5 to 1 million cells per ml. Cells were untreated or treated with etomoxir or 2-deoxy-D-glucose at a concentration of 2.5 mM at the indicated concentrations for either 24 or 48 hours. In additional experiments, under each of these culture conditions, the cells were cultured for 24 hours at which time point, polyclonal anti-UCP-2 was added at a 1:1000 dilution of stock provided by Alpha Diagnostics, San Antonio, Tex. Cells were harvested and analyzed by flow cytometry. Each dot on the dot plots of FIGS. 1, 3, 5, 7, 9, and 11 represents one cell. Five thousand cells were assessed for forward scatter (FS), as a function of cell size, versus side scatter (SS), as a function of cellular granularity. The upper ellipse represents live cells by these criterion and the lower ellipse in each dot plot represents the dead cells.
Statistical Analysis, Percents, and Geometric Mean Values Percents. Gating is a tool provided by Cell Quest software and allows for the analysis of a certain population of cells. Gating around both the live and dead cell populations gave a percent of the cell numbers that was in each population. After the gates were drawn, a percent value of dead cells was calculated by taking the number of dead cells divided by the number of total cells and multiplying by one hundred.
This example illustrates an embodiment of the invention, where multi-drug resistant cancer cells were exposed to compositions of the invention. Analysis of the cells was performed using flow cytometry. The flow cytometry experiments were performed as follows. The cells were harvested, counted, and resuspended as described above. For DNA staining, the cells were washed and resuspended in ice-cold PBS and fixed by the dropwise addition of 95% ethanol. The cells were then incubated for 30 minutes on ice, washed, and resuspended in PBS containing 1% formaldehyde and 0.01% Tween. The cells were incubated with 50 units of DNAse and washed with PBS containing 5% DNAse. The cells were then incubated with anti DNA Fab (166, kind gift of Dr. Susan Wallace, University of Vermont), then washed and stained with a fluorescein conjugated second step anti-mouse immunoglobulin. The cells were then washed and resuspended in PBS/3% BSA/1% formaldehyde. The cells were stained for intracellular H2O2 using 6-carboxy-2′,7′-dichlorodihydrofluorescein diacetate (DCF-DA, Molecular Probes, Eugene, Oreg.). The cells were incubated with 1 mM DCF-DA for 20 minutes, washed twice in PBS containing 5% fetal calf serum and analyzed using flow cytometry. The mitochondrial membrane potential was assessed using MitoTracker Red (CM-H2XROS, Molecular Probes, Eugene, Oreg.). The cells were resuspended in warm (37° C.) PBS containing a final concentration of 0.5 micromolar of dye. The cells were then incubated for 30 minutes, pelleted, and resuspended in prewarmed medium for analysis. The data was acquired on a Coulter Elite Epics or Excel flow cytometer (Coulter, Hialeah, Fla.) and analyzed with CellQuest software, (Becton Dickinson, San Jose, Calif.). […] Each sample population was classified for cell size (forward scatter) and complexity (side scatter), gated on a population of interest and evaluated using 40,000 cells. Each figure describing flow cytometric data represents one of at least four replicate experiments.
All cell lines in this example were cultured in RPMI 1640 culture medium. The medium was supplemented with 5% fetal bovine serum (“FBS”), 2 mM L-Glutamine, 500 units/mL pennicillin/500 micrograms/mL of streptomycin, 10 mM HEPES Buffer, 10^−5 M 2-mercaptoethanol (“2-ME”), 1 mM MEM Sodium Pyruvate, and 0.04 micrograms/mL of Gentamicin (All reagents from Gibco BRL). The cells were maintained at 37° C. in a humidified atmosphere under 5% CO2 in air using standard cell culture techniques known to those of ordinary skill in the art. […]

CCOC(=O)C1(CCCCCCOc2ccc(Cl)cc2)CO1 (stereo not shown) [etomoxir, 2-(6-(4-chlorophenoxy)-hexyl)-oxirane-2-carboxylic acid ethyl ester]
tumor growth versus control ([1]; 21 day period, single agent): increase in tumor growth
tumor volume, Day 7 ([1]; Day 7 after implantation (start of treatment), 200 ug Etomoxir and/or 2.5 mM 2-Deoxy-D-glucose daily IP): 36 mm^3
tumor volume, Day 9 ([1]; Day 9, 200 ug Etomoxir and/or 2.5 mM 2-Deoxy-D-glucose daily IP): 71.73 mm^3
tumor volume, Day 15 ([1]; Day 15, 200 ug Etomoxir and/or 2.5 mM 2-Deoxy-D-glucose daily IP): 261.35 mm^3
tumor volume, Day 21 ([1]; Day 21, 200 ug Etomoxir and/or 2.5 mM 2-Deoxy-D-glucose daily IP): 895.09 mm^3
percent of cell deaths ([2]; 24 hours, 2-deoxy-D-glucose at 2.5 mM, etomoxir as in FIG. 27): 11%
percent of cell deaths ([2]; 48 hours, concentrations as in FIG. 31): 14%

— patent publication US8071645B2, “Systems and methods for treating human inflammatory and proliferative diseases and wounds, with fatty acid metabolism inhibitors and/or glycolytic inhibitors” (The Regents of the University of Colorado, priority 2003, dated 2011)
